PubChem BioAssay AID248 (DTP/NCI, 2004)
Toxic doses and inconclusive results are not listed.

System: L1210 leukemia ip in BDF1 mice, survival T/C
Test: NCI In Vivo Anticancer Drug Screen. Data for tumor model L1210 Leukemia (intraperitoneal) in B6D2F1 (BDF1) mice
Settings: higher = longer survival
Procedure, shortened: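 Antitumor effect is assessed in tumor-bearing animals. Survival in the compound arm is compared with a vehicle-dosed control arm and expressed as their quotient.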

## O=C1CN=C(c2ccc[nH]2)c2cc(Cl)ccc2N1
endpoint: mean survival time, dose: 100.0 mg/kg/injection, schedule: Q03HX008 (oral), vehicle: saline with Tween-80
  T/C: 123 % of control
endpoint: mean survival time, dose: 100.0 mg/kg/injection, schedule: Q03HX024 (oral), vehicle: saline with Tween-80
  T/C: 121 % of control
endpoint: mean survival time, dose: 100.0 mg/kg/injection, schedule: Q04DX003 (ip), vehicle: other
  T/C: 105 % of control
endpoint: mean survival time, dose: 100.0 mg/kg/injection, schedule: Q04DX003 (oral), vehicle: saline with Tween-80
  T/C: 109 % of control
endpoint: mean survival time, dose: 100.0 mg/kg/injection, schedule: Q08DX002 (ip), vehicle: other
  T/C: 115 % of control
endpoint: mean survival time, dose: 100.0 mg/kg/injection, schedule: Q08DX002 (oral), vehicle: saline with Tween-80
  T/C: 103 % of control
endpoint: mean survival time, dose: 102.0 mg/kg/injection, schedule: Q01DX007 (oral), vehicle: other
  T/C: 108 % of control
endpoint: mean survival time, dose: 112.0 mg/kg/injection, schedule: Q01DX015 (ip), vehicle: other
  T/C: 158 % of control
endpoint: mean survival time, dose: 112.5 mg/kg/injection, schedule: Q01DX Z (ip), vehicle: carboxymethylcellulose (CMC)
  T/C: 170 % of control
endpoint: mean survival time, dose: 120.0 mg/kg/injection, schedule: Q01DX009 (ip), vehicle: other
  T/C: 116 % of control
endpoint: mean survival time, dose: 156.0 mg/kg/injection, schedule: Q01DX007 (oral), vehicle: other
  T/C: 112 % of control
endpoint: mean survival time, dose: 180.0 mg/kg/injection, schedule: Q01DX009 (ip), vehicle: other
  T/C: 155 % of control
endpoint: mean survival time, dose: 200.0 mg/kg/injection, schedule: Q01DX001 (ip), vehicle: other
  T/C: 106 % of control
endpoint: mean survival time, dose: 200.0 mg/kg/injection, schedule: Q01DX001 (iv), vehicle: other
  T/C: 108 % of control
endpoint: mean survival time, dose: 200.0 mg/kg/injection, schedule: Q01DX001 (oral), vehicle: saline with Tween-80
  T/C: 116 % of control
endpoint: mean survival time, dose: 200.0 mg/kg/injection, schedule: Q01DX009 (oral), vehicle: saline with Tween-80
  T/C: 109 % of control
endpoint: mean survival time, dose: 200.0 mg/kg/injection, schedule: Q04DX003 (ip), vehicle: other
  T/C: 114 % of control
endpoint: mean survival time, dose: 200.0 mg/kg/injection, schedule: Q04DX003 (oral), vehicle: saline with Tween-80
  T/C: 115 % of control
endpoint: mean survival time, dose: 200.0 mg/kg/injection, schedule: Q08DX002 (ip), vehicle: other
  T/C: 118 % of control
endpoint: mean survival time, dose: 200.0 mg/kg/injection, schedule: Q08DX002 (oral), vehicle: saline with Tween-80
  T/C: 105 % of control
endpoint: mean survival time, dose: 225.0 mg/kg/injection, schedule: Q01DX Z (ip), vehicle: carboxymethylcellulose (CMC)
  T/C: 86 % of control
endpoint: mean survival time, dose: 240.0 mg/kg/injection, schedule: Q01DX007 (oral), vehicle: other
  T/C: 119 % of control
endpoint: mean survival time, dose: 400.0 mg/kg/injection, schedule: Q01DX001 (ip), vehicle: other
  T/C: 112 % of control
endpoint: mean survival time, dose: 400.0 mg/kg/injection, schedule: Q01DX001 (iv), vehicle: other
  T/C: 109 % of control
endpoint: mean survival time, dose: 400.0 mg/kg/injection, schedule: Q01DX001 (oral), vehicle: saline with Tween-80
  T/C: 108 % of control
endpoint: mean survival time, dose: 400.0 mg/kg/injection, schedule: Q01DX009 (ip), vehicle: Klucel (hydroxypropylcellulose) (HPC)
  T/C: 109 % of control
endpoint: mean survival time, dose: 400.0 mg/kg/injection, schedule: Q01DX009 (ip), vehicle: water
  T/C: 108 % of control
endpoint: mean survival time, dose: 400.0 mg/kg/injection, schedule: Q01DX009 (oral), vehicle: saline with Tween-80
  T/C: 105 % of control
endpoint: mean survival time, dose: 400.0 mg/kg/injection, schedule: Q04DX003 (ip), vehicle: other
  T/C: 114 % of control
endpoint: mean survival time, dose: 400.0 mg/kg/injection, schedule: Q08DX002 (ip), vehicle: other
  T/C: 109 % of control
endpoint: mean survival time, dose: 400.0 mg/kg/injection, schedule: Q08DX002 (oral), vehicle: saline with Tween-80
  T/C: 109 % of control
endpoint: mean survival time, dose: 540.0 mg/kg/injection, schedule: Q01DX001 (oral), vehicle: other
  T/C: 110 % of control
endpoint: mean survival time, dose: 720.0 mg/kg/injection, schedule: Q01DX001 (oral), vehicle: other
  T/C: 110 % of control
endpoint: mean survival time, dose: 800.0 mg/kg/injection, schedule: Q08DX002 (oral), vehicle: saline with Tween-80
  T/C: 121 % of control
endpoint: median survival time, dose: 2.0 mg/kg/injection, schedule: Q03HX008 (ip), vehicle: clinical formulation
  T/C: 95 % of control
endpoint: median survival time, dose: 32.0 mg/kg/injection, schedule: Q04DX003 (ip), vehicle: clinical formulation
  T/C: 90 % of control
endpoint: median survival time, dose: 50.0 mg/kg/injection, schedule: Q01DX009 (ip), vehicle: steriod suspending solution
  T/C: 100 % of control
endpoint: median survival time, dose: 50.0 mg/kg/injection, schedule: Q01DX009 (sc), vehicle: steriod suspending solution
  T/C: 100 % of control
endpoint: median survival time, dose: 64.0 mg/kg/injection, schedule: Q01DX001 (ip), vehicle: clinical formulation
  T/C: 95 % of control
endpoint: median survival time, dose: 64.0 mg/kg/injection, schedule: Q04DX003 (ip), vehicle: clinical formulation
  T/C: 100 % of control
endpoint: median survival time, dose: 100.0 mg/kg/injection, schedule: Q01DX001 (ip), vehicle: acid diluted with saline
  T/C: 100 % of control
endpoint: median survival time, dose: 100.0 mg/kg/injection, schedule: Q01DX009 (ip), vehicle: steriod suspending solution
  T/C: 100 % of control
endpoint: median survival time, dose: 100.0 mg/kg/injection, schedule: Q01DX009 (sc), vehicle: steriod suspending solution
  T/C: 100 % of control
endpoint: median survival time, dose: 200.0 mg/kg/injection, schedule: Q01DX001 (ip), vehicle: acid diluted with saline
  T/C: 95 % of control
endpoint: median survival time, dose: 200.0 mg/kg/injection, schedule: Q01DX009 (ip), vehicle: steriod suspending solution
  T/C: 122 % of control
endpoint: median survival time, dose: 200.0 mg/kg/injection, schedule: Q01DX009 (sc), vehicle: steriod suspending solution
  T/C: 100 % of control
endpoint: median survival time, dose: 400.0 mg/kg/injection, schedule: Q01DX009 (ip), vehicle: steriod suspending solution
  T/C: 150 % of control
endpoint: median survival time, dose: 400.0 mg/kg/injection, schedule: Q01DX009 (sc), vehicle: steriod suspending solution
  T/C: 122 % of control
endpoint: median survival time, dose: 800.0 mg/kg/injection, schedule: Q01DX009 (ip), vehicle: steriod suspending solution
  T/C: 88 % of control
